Some test systems named below: A498 renal; UO-31 renal; SK-OV-3 ovarian; SN12C renal; SK-MEL-5 melanoma; SF-268 CNS; MALME-3M melanoma; HCC-2998 colon; HL-60(TB) leukemia; KM12 colon.
What all share (test): growth of human tumour cells (NCI), 48 h

We go through 14 compounds from PubChem BioAssay (NCI).

Each structure is given as a SMILES string.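 96-well plates; 48 h exposure; 5 concentrations. Endpoints by linear interpolation between flanking doses. Not reached: highest tested concentration assigned. At the GI50, growth is halved. TGI: total growth inhibition.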

For the compound `CCCOc1cc2ccccc2cc1C(=O)Nc1nc(NC)c2c(ccc3nccc32)[nH]1`, the GI50 in the assay with A498 renal was 0.359 µM; with UO-31 renal, 1.17 µM; in the assay on SK-OV-3 ovarian, 0.473 µM; in the assay with SN12C renal, 1.72 µM; with SK-MEL-5 melanoma it was 0.994 µM; with SF-268 CNS, 0.559 µM. The GI50 with MALME-3M melanoma is 1.15 µM; with HCC-2998 colon, 1.11 µM; in the assay on HL-60(TB) leukemia, 0.23 µM; in the assay on KM12 colon, 0.295 µM. Moreover, the TGI with A498 renal was 1.75 µM; with UO-31 renal, 2.59 µM; with SK-OV-3 ovarian it was 1.78 µM; with SN12C renal it was 3.48 µM; in the assay on SK-MEL-5 melanoma it was 2.2 µM; with SF-268 CNS, 2.05 µM. Also, the TGI in the assay with MALME-3M melanoma worked out at 2.54 µM; in the assay with HCC-2998 colon it was 2.41 µM; in the assay with HL-60(TB) leukemia, 0.611 µM; in the assay on KM12 colon, 1.46 µM.

In the case of `O=C(CSCC(=O)N/N=C/c1ccccc1O)N/N=C\c1ccccc1O`, the GI50 is 14.3 µM with A498 renal; 1.06 µM in the assay on UO-31 renal; 2.4 µM with SK-OV-3 ovarian; 2.46 µM in the assay on SN12C renal; 1.86 µM in the assay on SK-MEL-5 melanoma; 1.2 µM with SF-268 CNS. The GI50 in the assay with MALME-3M melanoma is 2.29 µM; with HCC-2998 colon, 1.61 µM; in the assay with HL-60(TB) leukemia, 1.49 µM; in the assay with KM12 colon it was 2.42 µM. Further, the TGI was over 100 µM in the assay on A498 renal; 37.3 µM in the assay on UO-31 renal; over 100 µM with SK-OV-3 ovarian; over 100 µM in the assay on SN12C renal; over 100 µM in the assay with SK-MEL-5 melanoma; over 100 µM in the assay on SF-268 CNS. For the same compound, the TGI with MALME-3M melanoma is 25.2 µM; with HCC-2998 colon, 34.4 µM; with HL-60(TB) leukemia, 5.11 µM; in the assay on KM12 colon it was over 100 µM.

For `Cc1ccc(Nc2cc(Cl)c([N+](=O)[O-])cc2[N+](=O)[O-])cc1`, the GI50 is 13.3 µM in the assay with A498 renal; 4.71 µM in the assay with UO-31 renal; 4.55 µM with SK-OV-3 ovarian; 4.1 µM in the assay on SN12C renal; 3.19 µM in the assay on SK-MEL-5 melanoma; 3.63 µM in the assay on SF-268 CNS. For the same compound, the GI50 is 5.72 µM with MALME-3M melanoma, 2.26 µM with HCC-2998 colon, 3.62 µM with HL-60(TB) leukemia and 3.24 µM with KM12 colon. The TGI in the assay with A498 renal came to 26.1 µM; in the assay on UO-31 renal, 17.5 µM; with SK-OV-3 ovarian it was 13.1 µM; in the assay on SN12C renal it was 14.6 µM; in the assay with SK-MEL-5 melanoma, 9.51 µM; in the assay on SF-268 CNS it was 10.3 µM. Moreover, the TGI in the assay with MALME-3M melanoma came to 14 µM; in the assay on HCC-2998 colon, 4.81 µM; in the assay with HL-60(TB) leukemia it was 14.6 µM; in the assay with KM12 colon, 8.8 µM.

Regarding `COC(=O)c1cccc2c3ccccc3c3ccccc3c12`, the TGI was 50 µM in the assay with A498 renal; over 100 µM in the assay with UO-31 renal; 75.7 µM in the assay with SK-OV-3 ovarian; over 100 µM with SN12C renal; over 100 µM in the assay on SK-MEL-5 melanoma; over 100 µM with SF-268 CNS. Further, the TGI with MALME-3M melanoma was over 100 µM; in the assay with HCC-2998 colon it was over 100 µM; with HL-60(TB) leukemia, 58.1 µM; with KM12 colon, over 100 µM.

For the compound `Cc1cc(N(CCC#N)CCC#N)ccc1N=Nc1cc(Cl)ccc1Cl`, the TGI was determined as 34.7 µM in the assay with A498 renal; 30.9 µM with UO-31 renal; 29.9 µM in the assay on SK-OV-3 ovarian; 27.1 µM with SN12C renal; 30.3 µM in the assay with SK-MEL-5 melanoma; 29.9 µM in the assay on SF-268 CNS. Further, the TGI with MALME-3M melanoma was 17.9 µM; with HCC-2998 colon, 32.9 µM; in the assay on HL-60(TB) leukemia it was 16 µM; in the assay on KM12 colon, 30 µM.

As for `CC[C@@]1(OC(=O)C(N)CCCCN)C(=O)OCc2c1cc1n(c2=O)Cc2cc3ccccc3nc2-1` (some centres undefined), the TGI was determined as 0.455 µM in the assay on A498 renal; 0.148 µM with UO-31 renal; 12 µM in the assay on SK-OV-3 ovarian; 1.63 µM in the assay on SN12C renal; 0.184 µM with SK-MEL-5 melanoma; 11.9 µM in the assay with SF-268 CNS. The TGI in the assay with MALME-3M melanoma amounted to 1.79 µM; in the assay with HCC-2998 colon, 2.11 µM; in the assay on HL-60(TB) leukemia it was 0.127 µM; in the assay on KM12 colon, 5.26 µM.

For the compound `O=C1/C(=C/c2ccc3c(c2)OCCO3)CCC/C1=C\c1ccc2c(c1)OCCO2`, the TGI in the assay on A498 renal is 62.1 µM; in the assay on UO-31 renal, over 100 µM; with SK-OV-3 ovarian, over 100 µM; in the assay on SN12C renal, 54.9 µM; with SK-MEL-5 melanoma it was 80 µM; with SF-268 CNS, over 100 µM. For the same compound, the TGI was over 100 µM with MALME-3M melanoma, over 100 µM in the assay with HCC-2998 colon, 56.9 µM with HL-60(TB) leukemia and 62.1 µM with KM12 colon.

`Cc1cc(C(=O)Nc2n[nH]c3ccccc23)n[nH]1`: the GI50 in the assay with A498 renal is over 100 µM; in the assay with UO-31 renal it was 50.4 µM; in the assay on SK-OV-3 ovarian it was over 100 µM; in the assay with SN12C renal, over 100 µM; in the assay with SK-MEL-5 melanoma, over 100 µM; with SF-268 CNS, over 100 µM. Besides, the GI50 in the assay with MALME-3M melanoma is over 100 µM; in the assay on HCC-2998 colon, 50.6 µM; in the assay with HL-60(TB) leukemia, 75.2 µM; in the assay with KM12 colon, 28.9 µM. Moreover, the TGI in the assay on A498 renal, in the assay with UO-31 renal, in the assay on SK-OV-3 ovarian, in the assay on SN12C renal, in the assay with SK-MEL-5 melanoma and with SF-268 CNS was over 100 µM each time. For the same compound, the TGI in the assay on MALME-3M melanoma, with HCC-2998 colon, in the assay on HL-60(TB) leukemia and with KM12 colon was over 100 µM throughout.

For the compound `N#COc1ccc(Oc2ccccc2)cc1`, the TGI in the assay with A498 renal, with UO-31 renal, in the assay on SK-OV-3 ovarian, in the assay on SN12C renal, with SK-MEL-5 melanoma and in the assay on SF-268 CNS was over 100 µM in each case. Also, the TGI with MALME-3M melanoma is over 100 µM; in the assay on HCC-2998 colon, over 100 µM; in the assay with HL-60(TB) leukemia it was 75.8 µM; in the assay on KM12 colon, over 100 µM.

For the compound `O=C(O)c1cc2ccccc2c2c3c(ccc12)OCO3`, the GI50 is 125 µM in the assay on A498 renal; 116 µM in the assay with UO-31 renal; 236 µM in the assay with SK-OV-3 ovarian; 174 µM with SN12C renal; 133 µM in the assay with SK-MEL-5 melanoma; 188 µM with SF-268 CNS. The GI50 with MALME-3M melanoma is 140 µM; with HCC-2998 colon it was 225 µM; with HL-60(TB) leukemia, 172 µM; in the assay with KM12 colon, 219 µM. Also, the TGI is 324 µM in the assay on A498 renal; 484 µM in the assay on UO-31 renal; 739 µM in the assay with SK-OV-3 ovarian; over 1000 µM with SN12C renal; 281 µM in the assay with SK-MEL-5 melanoma; 580 µM in the assay with SF-268 CNS. Moreover, the TGI with MALME-3M melanoma came out at 361 µM; with HCC-2998 colon, 763 µM; in the assay on HL-60(TB) leukemia it was 440 µM; in the assay on KM12 colon, 702 µM.

Consider `C1OC1CN1CCN(CC2CO2)CC1` (centres undefined), for which the TGI with A498 renal, in the assay with UO-31 renal, in the assay on SK-OV-3 ovarian, with SN12C renal, in the assay on SK-MEL-5 melanoma and in the assay on SF-268 CNS was over 100 µM throughout. In addition, the TGI is over 100 µM with MALME-3M melanoma, over 100 µM in the assay on HCC-2998 colon, over 88.7 µM in the assay on HL-60(TB) leukemia and over 100 µM with KM12 colon.

As to `COCCOCCOCc1n(Cc2ccc3ccccc3c2)c2ccccc2[n+]1Cc1ccc2ccccc2c1`, the GI50 in the assay on A498 renal is 0.92 µM; in the assay on UO-31 renal, 1.83 µM; with SK-OV-3 ovarian, 1.14 µM; in the assay on SN12C renal it was 0.372 µM; in the assay on SK-MEL-5 melanoma it was 0.216 µM; in the assay on SF-268 CNS, 0.442 µM. For the same compound, the GI50 with MALME-3M melanoma is 0.351 µM; with HCC-2998 colon, 0.56 µM; in the assay with HL-60(TB) leukemia it was 0.115 µM; with KM12 colon, 0.352 µM. Moreover, the TGI worked out at 2.19 µM in the assay on A498 renal; 4.58 µM in the assay on UO-31 renal; 2.49 µM in the assay on SK-OV-3 ovarian; 1.46 µM in the assay with SN12C renal; 0.544 µM with SK-MEL-5 melanoma; 1.68 µM with SF-268 CNS. For the same compound, the TGI in the assay on MALME-3M melanoma turned out to be 1.38 µM; in the assay with HCC-2998 colon, 2.06 µM; in the assay on HL-60(TB) leukemia, 0.38 µM; with KM12 colon, 1.29 µM.

`CC(C)(C)c1cc(C(=O)Nc2ccc(C(=O)NCCN)cc2)cc(C(C)(C)C)c1`: the GI50 is 8.27 µM with A498 renal; 4.68 µM in the assay with UO-31 renal; 5.31 µM in the assay with SK-OV-3 ovarian; 1.98 µM with SN12C renal; 1.74 µM in the assay on SK-MEL-5 melanoma; 2.03 µM with SF-268 CNS. For the same compound, the GI50 was 1.43 µM in the assay with MALME-3M melanoma, 1.69 µM with HCC-2998 colon, 1.9 µM in the assay on HL-60(TB) leukemia and 2.22 µM in the assay with KM12 colon. Moreover, the TGI in the assay with A498 renal worked out at 26 µM; in the assay with UO-31 renal, 22 µM; in the assay with SK-OV-3 ovarian, 20.7 µM; in the assay with SN12C renal, 3.9 µM; in the assay with SK-MEL-5 melanoma, 3.15 µM; with SF-268 CNS, 5.05 µM. The TGI with MALME-3M melanoma worked out at 3.13 µM; in the assay on HCC-2998 colon, 3.18 µM; in the assay on HL-60(TB) leukemia it was 3.87 µM; in the assay on KM12 colon, 5.14 µM.

As for `CCOC(=O)C(Cc1c[nH]c2cc(N(CCO)CCO)ccc12)(NC(C)=O)C(=O)OCC`, the GI50 was 570 µM in the assay with A498 renal; 673 µM with UO-31 renal; 480 µM in the assay on SK-OV-3 ovarian; 379 µM with SN12C renal; 619 µM in the assay on SF-268 CNS; 258 µM in the assay on MALME-3M melanoma. The GI50 in the assay with HCC-2998 colon was over 1000 µM; with HL-60(TB) leukemia, 133 µM; in the assay with KM12 colon, 143 µM. The TGI in the assay with A498 renal, with UO-31 renal, in the assay with SK-OV-3 ovarian, with SN12C renal, in the assay with SK-MEL-5 melanoma and in the assay with SF-268 CNS was over 1000 µM in each case. In addition, the TGI was over 1000 µM in the assay on MALME-3M melanoma, over 1000 µM in the assay with HCC-2998 colon, 489 µM in the assay with HL-60(TB) leukemia and 463 µM in the assay on KM12 colon.
